Test results taken from PubChem BioAssay (NCI).
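48-hour exposure; five concentrations; linearly interpolated endpoints. At the TGI there is no net growth.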

Experiments:
Assay in all cases: NCI anticancer screen, dose series, 48 h
786-0 renal = system: 786-0 renal
A498 renal = system: A498 renal
A549 NSCLC = system: A549 NSCLC
ACHN renal = system: ACHN renal
BT-549 breast = system: BT-549 breast
CAKI-1 renal = system: CAKI-1 renal
CCRF-CEM leukemia = system: CCRF-CEM leukemia
COLO 205 colon = system: COLO 205 colon
DU-145 prostate = system: DU-145 prostate
EKVX NSCLC = system: EKVX NSCLC
HCC-2998 colon = system: HCC-2998 colon
HCT-116 colon = system: HCT-116 colon
HCT-15 colon = system: HCT-15 colon
HL-60(TB) leukemia = system: HL-60(TB) leukemia
HOP-62 NSCLC = system: HOP-62 NSCLC
HOP-92 NSCLC = system: HOP-92 NSCLC
HT29 colon = system: HT29 colon
IGROV1 ovarian = system: IGROV1 ovarian
K-562 leukemia = system: K-562 leukemia
KM12 colon = system: KM12 colon
LOX IMVI melanoma = system: LOX IMVI melanoma
M14 melanoma = system: M14 melanoma
MALME-3M melanoma = system: MALME-3M melanoma
MCF7 breast = system: MCF7 breast
MDA-MB-231 breast = system: MDA-MB-231 breast
MDA-MB-435 = system: MDA-MB-435
MDA-N = system: MDA-N
MOLT-4 leukemia = system: MOLT-4 leukemia
NCI-H226 lung = system: NCI-H226 lung
NCI-H23 lung = system: NCI-H23 lung
NCI-H460 lung = system: NCI-H460 lung
NCI-H522 lung = system: NCI-H522 lung
NCI/ADR-RES ovarian = system: NCI/ADR-RES ovarian
OVCAR-3 ovarian = system: OVCAR-3 ovarian
OVCAR-4 ovarian = system: OVCAR-4 ovarian
OVCAR-5 ovarian = system: OVCAR-5 ovarian
OVCAR-8 ovarian = system: OVCAR-8 ovarian
PC-3 prostate = system: PC-3 prostate
RPMI-8226 leukemia = system: RPMI-8226 leukemia
RXF 393 renal = system: RXF 393 renal
SF-268 CNS = system: SF-268 CNS
SF-295 CNS = system: SF-295 CNS
SF-539 CNS = system: SF-539 CNS
SK-MEL-2 melanoma = system: SK-MEL-2 melanoma
SK-MEL-28 melanoma = system: SK-MEL-28 melanoma
SK-MEL-5 melanoma = system: SK-MEL-5 melanoma
SK-OV-3 ovarian = system: SK-OV-3 ovarian
SN12C renal = system: SN12C renal
SNB-19 CNS = system: SNB-19 CNS
SNB-75 CNS = system: SNB-75 CNS
SW-620 colon = system: SW-620 colon
T-47D breast = system: T-47D breast
TK-10 renal = system: TK-10 renal
U251 CNS = system: U251 CNS
UACC-257 melanoma = system: UACC-257 melanoma
UACC-62 melanoma = system: UACC-62 melanoma
UO-31 renal = system: UO-31 renal
SR leukemia = system: SR leukemia

## COc1ccn(CC(=O)c2cc3ccccc3[nH]2)c(=O)n1
786-0 renal
  TGI: > 100 µM
A498 renal
  TGI: > 100 µM
A549 NSCLC
  TGI: > 100 µM
ACHN renal
  TGI: > 100 µM
BT-549 breast
  TGI: > 100 µM
CAKI-1 renal
  TGI: > 100 µM
CCRF-CEM leukemia
  TGI: > 100 µM
COLO 205 colon
  TGI: > 100 µM
DU-145 prostate
  TGI: > 100 µM
EKVX NSCLC
  TGI: > 100 µM
HCC-2998 colon
  TGI: > 100 µM
HCT-116 colon
  TGI: > 100 µM
HCT-15 colon
  TGI: > 100 µM
HL-60(TB) leukemia
  TGI: > 100 µM
HOP-62 NSCLC
  TGI: > 100 µM
HOP-92 NSCLC
  TGI: > 100 µM
HT29 colon
  TGI: > 100 µM
IGROV1 ovarian
  TGI: > 100 µM
K-562 leukemia
  TGI: > 100 µM
KM12 colon
  TGI: > 100 µM
LOX IMVI melanoma
  TGI: > 100 µM
M14 melanoma
  TGI: > 100 µM
MALME-3M melanoma
  TGI: > 100 µM
MCF7 breast
  TGI: > 100 µM
MDA-MB-231 breast
  TGI: > 100 µM
MDA-MB-435
  TGI: > 100 µM
MDA-N
  TGI: > 100 µM
MOLT-4 leukemia
  TGI: > 100 µM
NCI-H226 lung
  TGI: > 100 µM
NCI-H23 lung
  TGI: > 100 µM
NCI-H460 lung
  TGI: > 100 µM
NCI-H522 lung
  TGI: > 100 µM
NCI/ADR-RES ovarian
  TGI: > 100 µM
OVCAR-3 ovarian
  TGI: > 100 µM
OVCAR-4 ovarian
  TGI: > 100 µM
OVCAR-5 ovarian
  TGI: > 100 µM
OVCAR-8 ovarian
  TGI: > 100 µM
PC-3 prostate
  TGI: > 100 µM
RPMI-8226 leukemia
  TGI: > 100 µM
RXF 393 renal
  TGI: > 100 µM
SF-268 CNS
  TGI: > 100 µM
SF-295 CNS
  TGI: > 100 µM
SF-539 CNS
  TGI: > 100 µM
SK-MEL-2 melanoma
  TGI: > 100 µM
SK-MEL-28 melanoma
  TGI: > 100 µM
SK-MEL-5 melanoma
  TGI: > 100 µM
SK-OV-3 ovarian
  TGI: > 100 µM
SN12C renal
  TGI: > 100 µM
SNB-19 CNS
  TGI: > 100 µM
SNB-75 CNS
  TGI: > 100 µM
SW-620 colon
  TGI: > 100 µM
T-47D breast
  TGI: > 100 µM
TK-10 renal
  TGI: > 100 µM
U251 CNS
  TGI: > 100 µM
UACC-257 melanoma
  TGI: > 100 µM
UACC-62 melanoma
  TGI: > 100 µM
UO-31 renal
  TGI: > 100 µM

## CCCCCCCCCCCCCCCCCCOP1(=O)OCCO1
786-0 renal
  TGI: > 100 µM
A498 renal
  TGI: > 100 µM
A549 NSCLC
  TGI: > 100 µM
ACHN renal
  TGI: > 100 µM
CAKI-1 renal
  TGI: > 100 µM
CCRF-CEM leukemia
  TGI: > 100 µM
COLO 205 colon
  TGI: > 100 µM
DU-145 prostate
  TGI: > 100 µM
EKVX NSCLC
  TGI: > 100 µM
HCC-2998 colon
  TGI: > 100 µM
HCT-116 colon
  TGI: > 100 µM
HCT-15 colon
  TGI: > 100 µM
HL-60(TB) leukemia
  TGI: 75.3 µM
HOP-62 NSCLC
  TGI: > 100 µM
HOP-92 NSCLC
  TGI: > 100 µM
HT29 colon
  TGI: > 100 µM
IGROV1 ovarian
  TGI: > 100 µM
K-562 leukemia
  TGI: > 100 µM
KM12 colon
  TGI: > 100 µM
LOX IMVI melanoma
  TGI: > 100 µM
M14 melanoma
  TGI: > 100 µM
MALME-3M melanoma
  TGI: > 100 µM
MCF7 breast
  TGI: > 100 µM
MDA-MB-231 breast
  TGI: > 100 µM
MDA-MB-435
  TGI: > 100 µM
MDA-N
  TGI: > 100 µM
MOLT-4 leukemia
  TGI: > 100 µM
NCI-H226 lung
  TGI: > 100 µM
NCI-H23 lung
  TGI: > 100 µM
NCI-H522 lung
  TGI: > 100 µM
NCI/ADR-RES ovarian
  TGI: > 100 µM
OVCAR-3 ovarian
  TGI: > 100 µM
OVCAR-4 ovarian
  TGI: > 100 µM
OVCAR-5 ovarian
  TGI: > 100 µM
OVCAR-8 ovarian
  TGI: > 100 µM
PC-3 prostate
  TGI: 83.9 µM
RPMI-8226 leukemia
  TGI: > 100 µM
RXF 393 renal
  TGI: 75.4 µM
SF-295 CNS
  TGI: > 100 µM
SF-539 CNS
  TGI: > 100 µM
SK-MEL-2 melanoma
  TGI: > 100 µM
SK-MEL-28 melanoma
  TGI: > 100 µM
SK-MEL-5 melanoma
  TGI: > 100 µM
SK-OV-3 ovarian
  TGI: > 100 µM
SN12C renal
  TGI: > 100 µM
SNB-19 CNS
  TGI: > 100 µM
SNB-75 CNS
  TGI: > 100 µM
SW-620 colon
  TGI: > 100 µM
T-47D breast
  TGI: > 100 µM
TK-10 renal
  TGI: > 100 µM
U251 CNS
  TGI: > 100 µM
UACC-257 melanoma
  TGI: > 100 µM
UACC-62 melanoma
  TGI: > 100 µM
UO-31 renal
  TGI: > 100 µM

## COc1ccc2c(C)cc(C)nc2n1
786-0 renal
  TGI: > 100 µM
A498 renal
  TGI: > 100 µM
A549 NSCLC
  TGI: > 100 µM
ACHN renal
  TGI: > 100 µM
BT-549 breast
  TGI: > 100 µM
CAKI-1 renal
  TGI: > 100 µM
CCRF-CEM leukemia
  TGI: > 100 µM
COLO 205 colon
  TGI: > 100 µM
DU-145 prostate
  TGI: > 100 µM
EKVX NSCLC
  TGI: > 100 µM
HCC-2998 colon
  TGI: > 100 µM
HCT-116 colon
  TGI: > 100 µM
HCT-15 colon
  TGI: > 100 µM
HL-60(TB) leukemia
  TGI: > 100 µM
HOP-62 NSCLC
  TGI: > 100 µM
HOP-92 NSCLC
  TGI: > 100 µM
HT29 colon
  TGI: > 100 µM
IGROV1 ovarian
  TGI: > 100 µM
K-562 leukemia
  TGI: > 100 µM
KM12 colon
  TGI: > 100 µM
LOX IMVI melanoma
  TGI: > 100 µM
M14 melanoma
  TGI: > 100 µM
MALME-3M melanoma
  TGI: > 100 µM
MCF7 breast
  TGI: > 100 µM
MDA-MB-231 breast
  TGI: > 100 µM
MDA-MB-435
  TGI: > 100 µM
MDA-N
  TGI: > 100 µM
MOLT-4 leukemia
  TGI: > 100 µM
NCI-H23 lung
  TGI: > 100 µM
NCI-H460 lung
  TGI: > 100 µM
NCI-H522 lung
  TGI: > 100 µM
NCI/ADR-RES ovarian
  TGI: > 100 µM
OVCAR-3 ovarian
  TGI: > 100 µM
OVCAR-4 ovarian
  TGI: > 100 µM
OVCAR-5 ovarian
  TGI: > 100 µM
OVCAR-8 ovarian
  TGI: > 100 µM
PC-3 prostate
  TGI: > 100 µM
RPMI-8226 leukemia
  TGI: > 100 µM
RXF 393 renal
  TGI: > 100 µM
SF-295 CNS
  TGI: > 100 µM
SK-MEL-2 melanoma
  TGI: > 100 µM
SK-MEL-28 melanoma
  TGI: > 100 µM
SK-MEL-5 melanoma
  TGI: > 100 µM
SK-OV-3 ovarian
  TGI: > 100 µM
SN12C renal
  TGI: > 100 µM
SNB-19 CNS
  TGI: > 100 µM
SNB-75 CNS
  TGI: > 100 µM
SR leukemia
  TGI: > 100 µM
SW-620 colon
  TGI: > 100 µM
T-47D breast
  TGI: > 100 µM
TK-10 renal
  TGI: > 100 µM
U251 CNS
  TGI: > 100 µM
UACC-257 melanoma
  TGI: > 100 µM
UACC-62 melanoma
  TGI: > 100 µM
UO-31 renal
  TGI: > 100 µM
